Patent US7691563B2, “Method for alleviating pain using sphingosine-1-phosphate and related compounds, and assays for identifying such compounds” (Sanofi-Aventis Pharma GmbH, priority 2003, dated 2010)
Values joined by “and” are separate entries in the source; they are usually repeats but may differ in a detail not shown here. Identical values can stand only once.

What was measured:
Assay type in all cases: cell-based, human
[1] = system: PAM; test: PAM translocation to the plasma membrane in HeLa cells (immunofluorescence)
Experimental: Panel B: HeLa cells were treated with 10% fetal bovine serum for different times and stained with anti-PAM antibodies to monitor the subcellular localization.
Panel B: HeLa cells were treated with 0.5 μM S1P for 30 minutes and stained with anti-PAM antibodies to monitor the subcellular localization.
Panel C: Time dependence of PAM translocation in HeLa cells. Serum-starved HeLa cells were treated with 0.5 μM S1P for different times and stained with anti-PAM antibodies to monitor the subcellular localization.
Panel D: HeLa cells were treated with 0.5 μM S1P for 20 minutes and stained with anti-PAM antibodies to monitor the subcellular localization. Prior S1P-treatment were the cells incubated for 24 hours with […] pertussis toxin (PTX), for 20 minutes with, 1 μM GF109203X, 10 μM U0126, BAPTA-AM, U73122 or Ro31-223.
To monitor distribution of PAM in HeLa cells, cells were grown on glass coverslips in DMEM with 10% FBS and 1% penicillin/streptoMycin (Gibco, Karlsruhe, Germany). To visualize translocation of PAM HeLa, cells were serum starved overnight and subsequently treated with 10% serum for 2 hours. Wherever indicated, cells were preincubated for 30 minutes in the presence of different concentrations of inhibitors. The cells were fixed in 4% paraformaldehyde (Sigma, Taufkirchen, Germany) in PBS for 10 minutes and then permeablized in 0.1% Triton X-100 for another 5 minutes. The coverslips were blocked for 1 hour in 3% BSA in PBS and then incubated for 1 hour with anti-PAM antibody (1:50 dilution). This was followed by incubation with FITC-labeled goat anti-rabbit antibody in PBS containing 3% BSA. The cells were then washed with PBS and mounted. For the analysis confocal (BioRad, Hercules, Calif.) and regular flourescence microscopes (Nikon, Duesseldorf, Germany) were used.

[2] = system: adenylyl cyclase (AC); test: AC activity of HeLa cell lysates after treatment of cells; conditions: HeLa cells
Experimental: Panel B: Adenylyl cyclase activity of HeLa cell lysates was measured in the absence and presence of serum as described in Materials and Methods section. The Gsα* (80 nM; grey bars)- and forskolin (100 μM; black bars)-stimulated specific activities of ACV were 124±10 pmol/mg/min and 464±89 pmol/min/mg, respectively. The basal activity was 11.75±2 pmol/mg/min. The mean ±SE of at least 2 experiments each done in triplicates is shown. Student T test: *p<0.001.
Panel E: Serum-starved HeLa cells were treated with sense, antisense, and 3M-as ODNs as described above. After 24 hours the cells were incubated for 30 minutes with 10% FBS. Cells were harvested and AC activity in presence of Gαs* (80 nM; grey bars) and forskolin (100 μM; black bars) was determined as described above. Data from at least 3 experiments measured in triplicates are presented as the mean±SEM. Student T test: *p<0.01, **p<0.05.
Panel B: Serum-starved HeLa cells were treated for varying times with 0.5 μM S1P. Cells were harvested and AC activity in presence of 80 nM Gαs* was determined as described in Material and Methods. Data from at least 4 experiments measured in triplicates are presented as the mean ±SE.
Panel C: Serum-starved HeLa cells were treated with sense, antisense, and 3M-as ODNs as described in the Materials and Methods section. After 24 hours the cells were incubated for the indicated times with 0.5 μM S1P. Cells were harvested and AC activity in presence of Gαs* (80 nM) was determined as described above. Data are presented as the mean ±SEM of three determinations.
Panel A: Serum-starved HeLa cells were treated with 0.5 μM S1P for 3 (grey bars) or 60 (black bars) minutes. Prior incubation with S1P the cells were incubated for 24 hours with […] pertussis toxin (PTX). AC activity in was determined presence of 80 nM Gαs*. Data from at least 2 experiments measured in triplicates are presented as the mean ±SE.
Panel B: Serum-starved HeLa cells were treated with 0.5 μM S1P. Prior incubation with S1P the cells were incubated for 20 minutes with 10 μM U73122, R031-8220, BAPTA-AM or U0126. AC activity in was determined presence of 80 nM Gαs*. Data from at least 2 experiments measured in triplicates are presented as the mean ±SE.
Spinal cords were lysed in 25 mM Hepes, pH 7.4, 1 mM EGTA and cell membranes were prepared as described by Kassis and Fishman. Aliquots were stored at −80° C. until use. AC activity assays were performed in a volume of 100 μl for 15 min at room temperature in the presence of 100 μM MgCl2 as previously described (Patel et al., 2002). Gsα* (80 nM) or forskolin (100 μM) were used to stimulate AC enzyme activity in membranes (10 μg protein).
The sequences of the oligodeoxynucleotides (ODNs) were chosen as published previously (Scholich et al., 2001). Sense: 5′-CTGTTCATGCCGGTT-3′, antisense: 5′-AACCGGCATGAACAG-3′, and antisense ODN harboring three mutations (3M-as; mutations are underlined): 5′-AATCCGTATGAACAC-3′. HeLa-cells were plated on 35 mm dishes (300,000 cells) and grown in DMEM medium (Gibco, Karlsruhe, Germany) containing 10% FBS and 1% penicillin/streptoMycin for 24 hours. The ODNs (3 μM each) were introduced into the cells by transfections using Tfx20 (Promega, Madison, Wis.) in 1 ml serum-free medium according to the instructions of the manufacturer. Two hours later, 1 ml DMEM (Gibco, Karlsruhe, Germany) containing 10% FBS was added. The cells were then incubated for 6 hours. Then the medium was exchanged against serum-free DMEM (Gibco, Karlsruhe, Germany), followed by an incubation for 16 hours in serum-free DMEM (Gibco, Karlsruhe, Germany) before being treated with 10% serum or […] S1P. The cells were then used for Western blots by adding boiling 1× Laemmli buffer or they were havested for AC activity assays as described above.

[3] = system: cAMP; test: cAMP accumulation in HeLa cells; conditions: 0.5 μM S1P
Experimental: Panel A: cAMP accumulation in HeLa cells was measured in the absence and presence of serum as described above. The mean ±SEM (Standard error of the mean) of three determinations is shown. Panel A: cAMP accumulation in HeLa cells was measured in the absence (black bars) and presence (grey bars) of 0.5 μM S1P at varying times as described in Materials and Methods section. The mean ±SEM of three determinations is shown. Spinal cord samples were sonicated and centrifugeged at 4° C. for 20 minutes with 18.000×g. The supernatent was used for cAMP measurements. The cAMP accumulation in the cells was determined by the cAMP Detection Kit (Assay Design Inc, Ann Arbor, Mich.) according to the manufacturers instructions.

[4] = system: HeLa cells; test: Calcium imaging in HeLa cells

CCCCCCCCCCCCC/C=C/[C@@H](O)[C@@H](N)COP(=O)(O)O [S1P, Sphingosine-1-Phosphate]
PAM translocation among candidate substances for the serum factor ([1]; HeLa cells): induced PAM translocation | cells with PAM translocation to the plasma membrane ([1]; HeLa cells treated with 0.1-5 μM S1P): 70-90% and 80% | time at which PAM appeared at the plasma membrane ([1]; HeLa cells, 500 nM S1P): 10 min | time at which PAM started to disappear from the plasma membrane ([1]; HeLa cells, 500 nM S1P): 1 h | time of PAM translocation to the plasma membrane ([1]; HeLa cells, 0.1-5 μM S1P): 10 to 30 min | Gαs-stimulated AC activity ([2]; 0.5 μM S1P): reduced | time to first decrease of Gαs-stimulated AC activity ([2]; after incubation with S1P): ≤ 3 min | intracellular cAMP content [3]: reduced | intracellular calcium [4]: induced a PLC-dependent calcium increase
